These results are taken from patent publication US20120010266A1, “TBC1D7 AS TUMOR MARKER AND THERAPEUTIC TARGET FOR CANCER” (Oncotherapy Science Inc.,, priority 2008, published 2012).

In data set [1] the test system is TSC1. As to the kind of experiment: si-TSC1 treatment of LC319 cells: TSC1 and TBC1D7 transcript and protein levels (semiquantitative RT-PCR, western blot). Type of data set: cell-based, human. As to conditions: for TBC1D7 protein level: LC319 cells treated with siRNA against TSC1, western blot. The method, then: Total RNA was extracted from cultured cells and clinical tissues using Trizol reagent (Life Technologies, Inc.) according to the manufacturer's protocol. Extracted RNAs were treated with DNase I (Nippon Gene) and reversely-transcribed using oligo (dT) primer and SuperScript II reverse transcriptase (Invitrogen). Semiquantitative RT-PCR experiments were carried out with the following synthesized TBC1D7-specific primers or with beta-actin (ACTB)-specific primers as an internal control: TBC1D7, 5′-[…]-3′ (SEQ ID NO.: 5) or 5′-[…]-3′ (SEQ ID NO.:15) and 5′-[…]-3′ (SEQ ID NO.: 6); TSC1, 5′-[…]-3′ (SEQ ID NO.:16) and 5′-[…]-3′ (SEQ ID NO.:17); ACTB, 5′-[…]-3′ (SEQ ID NO.: 7) and 5′-[…]-3′ (SEQ ID NO.: 8). PCR reactions were optimized for the number of cycles to ensure product intensity within the logarithmic phase of amplification.
Cells were lysed in lysis buffer; 50 mM Tris-HCl (pH 8.0), 150 mM NaCl, 0.5% NP-40, 0.5% deoxycholate-Na, 0.1% SDS, plus protease inhibitor (Protease Inhibitor Cocktail Set III; Calbiochem). It was used an ECL western-blotting analysis system (GE Healthcare Bio-sciences), as previously described (Takahashi K. et al. Cancer Res 2006; 66:9408-19).
Small interfering RNA (siRNA) duplexes (100 nM) were transfected into a NSCLC cell line, A549 and LC319, using 24 microL of Lipofectamine 2000 (Invitrogen) following the manufacturer's protocol. The transfected cells were cultured for 7 days, and the number of colonies was counted by Giemsa staining, and viability of cells was evaluated by 3-(4,5-dimethylthiazol-2-yl)-2,5-diphenyltetrazolium bromide (MTT) assay (cell counting kit-8 solution; Dojindo Laboratories), at 7 days after transfection. To confirm suppression of TBC1D7 and TSC1 expression, western blotting using antibodies to TBC1D7 and TSC1 as well as semiquantitative RT-PCR with synthesized primers specific for TBC1D7 and TSC1 were carried out as described above. SiRNA sequences against human TBC1D7 and TSC1 were as follows, si-TBC1D7#3: GAACAGUGCAGAGAAGAUA (SEQ ID NO.:18), si-TBC1D7#4: GAUAAAGUUGUGAGUGGAU (SEQ ID NO.:19), and si-TSC1: CGACACGGCUGAUAACUGA (SEQ ID NO.:20). The present inventors also designed siRNA oligonucleotides against control-1 (LUC: luciferase gene from Photinus pyralis), 5′-CGUACGCGGAAUACUUCGA-3′ (SEQ ID NO.:21) and control-2 (EGFP: enhanced green fluorescent protein (GFP) gene, a mutant of Aequorea victoria GFP), 5′-GAAGCAGCACGACUUCUUC-3′ (SEQ ID NO.:22).

Data set [2] relates to p-rpS6 (Ser235/236), downstream target of mTORC1. As to the kind of experiment: Effect of TSC1 knockdown on mTORC1 pathway in LC319 cells (phosphorylation of rpS6). Type of data set: cell-based, human. As to conditions: LC319 cells treated with siRNA against TSC1.
In data set [3] the target is T1, endogenous TSC1 protein (human, lung cancer LC319 cells) (human, UniProt Q92574 1-1164, limits assumed).
T1 construct: Endogenous protein in LC319 cell extracts
T1 sequence: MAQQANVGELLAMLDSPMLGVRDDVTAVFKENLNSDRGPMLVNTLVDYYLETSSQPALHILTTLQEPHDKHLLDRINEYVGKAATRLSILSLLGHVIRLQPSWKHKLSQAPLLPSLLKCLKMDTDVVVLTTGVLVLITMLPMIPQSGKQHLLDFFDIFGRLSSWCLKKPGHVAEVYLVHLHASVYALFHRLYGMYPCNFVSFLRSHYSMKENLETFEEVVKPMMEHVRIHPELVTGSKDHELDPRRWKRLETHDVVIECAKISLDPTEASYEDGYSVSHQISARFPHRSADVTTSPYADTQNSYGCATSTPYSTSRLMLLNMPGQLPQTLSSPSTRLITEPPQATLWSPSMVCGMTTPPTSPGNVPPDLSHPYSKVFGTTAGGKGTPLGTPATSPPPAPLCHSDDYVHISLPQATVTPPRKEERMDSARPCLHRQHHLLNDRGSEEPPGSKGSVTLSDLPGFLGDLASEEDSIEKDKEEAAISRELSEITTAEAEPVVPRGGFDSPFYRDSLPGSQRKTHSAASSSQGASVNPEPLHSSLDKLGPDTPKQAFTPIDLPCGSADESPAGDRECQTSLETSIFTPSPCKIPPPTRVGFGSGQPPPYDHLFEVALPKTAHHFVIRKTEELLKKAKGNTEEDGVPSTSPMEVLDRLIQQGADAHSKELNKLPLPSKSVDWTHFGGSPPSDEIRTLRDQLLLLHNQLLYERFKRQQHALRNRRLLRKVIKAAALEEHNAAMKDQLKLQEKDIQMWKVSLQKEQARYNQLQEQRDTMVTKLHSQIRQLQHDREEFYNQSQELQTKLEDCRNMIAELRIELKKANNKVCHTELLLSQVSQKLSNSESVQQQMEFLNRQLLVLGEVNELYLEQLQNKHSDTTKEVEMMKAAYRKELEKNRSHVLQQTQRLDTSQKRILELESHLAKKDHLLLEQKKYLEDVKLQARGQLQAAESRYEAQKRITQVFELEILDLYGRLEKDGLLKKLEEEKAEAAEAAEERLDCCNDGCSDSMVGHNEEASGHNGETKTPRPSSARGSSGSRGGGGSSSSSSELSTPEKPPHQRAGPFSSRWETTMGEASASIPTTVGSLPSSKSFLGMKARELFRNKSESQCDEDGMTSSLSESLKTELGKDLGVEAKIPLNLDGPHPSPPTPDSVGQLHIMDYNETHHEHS
As to the kind of experiment: immunoprecipitation experiments using LC319 cells, as the legend of FIG. 5A says. From the text:
FIG. 5 depicts identification of TSC1-interacting region in TBC1D7 and inhibition of growth of lung cancer cells by dominant-negative peptides of TBC1D7. A, Left panel, Schematic drawing of six N-terminal Flag-tagged TBC1D7 partial protein constructs lacking either or both of the terminal regions. Right panels, Identification of the region in TBC1D7 that binds to TSC1 by immunoprecipitation experiments using LC319 cells. The TBC1D7₁₁₂₋₁₇₁ construct, which corresponds to a center region in TBC domain, was indicated to be TSC1-interacting region. B, Left top panel, Schematic drawing of three cell permeable peptides of TBC1D7 covering TBC1D7₁₁₂₋₁₇₁ that corresponds to the TSC1-interacting region in TBC1D7. B, Right top panels, Reduction of the complex formation between endogenous TSC1 and endogenous TBC1D7 proteins, detected by immunoprecipitation assay in LC319 cells that were treated with the 11R-TBC₁₅₂₋₁₇₁ peptides. C, MTT assay showing growth suppressive effect of 11R-TBC₁₅₂₋₁₇₁ peptides that were introduced into LC319 cells that expressed both TBC1D7 and TSC1 proteins. Bars, SD of triplicate assays. D, Left panels, Expressions of TBC1D7 and TSC1 proteins in lung cancer cell line LC319 and normal human lung fibroblast-derived CCD19Lu cells, examined by western blot analysis. […]

The target in data set [4] is T2, flag-TBC1D7 (exogenous TBC1D7 transiently expressed in COS-7 cells) (human, UniProt Q9P0N9 1-293).
T2 construct: The only full-length flag vector described is pCAGGSn3FC, with 3xflag at the C-terminus, so it may be the same construct as m2; The order of the parts is therefore uncertain
T2 sequence: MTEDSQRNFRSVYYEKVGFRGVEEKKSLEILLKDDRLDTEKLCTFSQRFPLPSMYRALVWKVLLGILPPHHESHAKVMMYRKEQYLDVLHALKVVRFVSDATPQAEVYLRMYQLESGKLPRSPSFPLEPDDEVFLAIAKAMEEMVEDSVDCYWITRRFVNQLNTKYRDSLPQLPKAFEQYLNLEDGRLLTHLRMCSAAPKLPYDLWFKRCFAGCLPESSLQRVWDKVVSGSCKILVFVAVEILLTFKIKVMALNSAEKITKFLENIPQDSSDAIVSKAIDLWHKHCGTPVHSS
As to the kind of experiment: co-immunoprecipitation from COS-7 cells expressing flag-TBC1D7 and Myc-RAB17 (FIG. 4B). The procedure: FIG. 4 depicts interaction of TBC1D7 with binding proteins. A, Interaction of exogenous TBC1D7 with endogenous 14-3-3 zeta protein in COS-7 cells. Immunoprecipitations were carried out using anti-flag M2 agarose and extracts from COS-7 cells transiently expressing flag-TBC1D7. Immunoprecipitates were subjected to western-blot analysis to detect endogenous 14-3-3. B, Interaction of exogenous TBC1D7 with exogenous RAB 17 protein in COS-7 cells. Immunoprecipitations were carried out using anti-flag M2 agarose and extracts from COS-7 cells transiently expressing flag-TBC1D7 and/or Myc-RAB17. Immunoprecipitates were subjected to western-blot analysis to detect exogenous RAB 17. IB, immunoblotting; IP, immunoprecipitation. C, Expression of TSC1 and TBC1D7 in lung cancer cells. […] Left panels, The levels of TSC1 and TBC1D7 transcripts and proteins, detected by semiquantitative RT-PCR analysis and western-blot analysis in LC319 cells transfected with si-TSC1. Right panels, The levels of TSC1 and TBC1D7 transcripts and proteins, detected by semiquantitative RT-PCR analysis and western-blot analysis in LC319 cells transfected with TSC1 expression vector. F, The levels of endogenous TSC1 and TBC1D7 proteins, detected by western blot analysis in LC319 cells that were initially transfected with si-TSC1, and were subsequently transfected with TSC1 expression vector 24 hours after the siRNA transfection. […]

“si-TSC1: siRNA sequence against human TSC1: CGACACGGCUGAUAACUGA (SEQ ID NO: 20) (listed as RNA, chemistry not given here)”: the “transcription level of TBC1D7” value in data set [1] (LC319 cells treated with si-TSC1, semiquantitative RT-PCR) is on record as “unchanged”. Besides, the TBC1D7 protein level entry is listed as “decreased” in data set [1] and “Reduced levels” in data set [1] (listed as siRNA against TSC1). Also, the “expression of the endogenous TSC1” value in data set [1] (LC319 cells, in comparison to control siRNA (si-EGFP)) is given as “suppressed”. Besides, in data set [2], the “levels of p-rpS6 (Ser235/236) protein” value is recorded as “not changed”.

B1: TBC112-171, N-terminal Flag-tagged TBC1D7 partial protein construct (other, not shown: small tags and cut ends)
chain: YQLESGKLPRSPSFPLEPDDEVFLAIAKAMEEMVEDSVDCYWITRRFVNQLNTKYRDSLP
Take B1: the binding result in data set [3] is reported as “binds”.

B2: Myc-RAB17 (pcDNA3.1 Myc-His RAB17), exogenous RAB17 expressed in COS-7 cells (other)
chain: MAQAHRTPQPRAAPSQPRVFKLVLLGSGSVGKSSLALRYVKNDFKSILPTVGCAFFTKVVDVGATSLKLEIWDTAGQEKYHSVCHLYFRGANAALLVYDITRKDSFLKAQQWLKDLEEELHPGEVLVMLVGNKTDLSQEREVTFQEGKEFADSQKLLFMETSAKLNHQVSEVFNTVAQELLQRSDEEGQALRGDAAVALNKGPARQAKCCAH
notes: not shown: Myc-His tag of the pcDNA3.1 Myc-His vector
B2: the binding result in data set [4] is recorded as “binds”.
